Laboratory results published in publication PMC7413254 (Nature Communications, 2020).
Read-outs that look alike come from different tables or passages of the source.

Legend:
[1] = test system: PfCRT; assay: Influx of VF-6 via PfCRT into the oocyte, solutes tested as potential co-substrates; type: cell-based, Plasmodium falciparum; set-up: key: X: Compounds that have been tested as potential co-substrates but are not required for influx of VF-6 via PfCRT into the oocyte; conditions: X marks the solute
[2] = molecular target: T1, PfCRT^Ecu1110 (Plasmodium falciparum, UniProt Q9N623, A220S/I356L/K76T/N326D); assay: [3H]CQ uptake into Xenopus oocytes, cis-inhibition by unlabelled solute; type: cell-based
T1 sequence (Q9N623 whole entry A220S/I356L/K76T/N326D, canonical isoform): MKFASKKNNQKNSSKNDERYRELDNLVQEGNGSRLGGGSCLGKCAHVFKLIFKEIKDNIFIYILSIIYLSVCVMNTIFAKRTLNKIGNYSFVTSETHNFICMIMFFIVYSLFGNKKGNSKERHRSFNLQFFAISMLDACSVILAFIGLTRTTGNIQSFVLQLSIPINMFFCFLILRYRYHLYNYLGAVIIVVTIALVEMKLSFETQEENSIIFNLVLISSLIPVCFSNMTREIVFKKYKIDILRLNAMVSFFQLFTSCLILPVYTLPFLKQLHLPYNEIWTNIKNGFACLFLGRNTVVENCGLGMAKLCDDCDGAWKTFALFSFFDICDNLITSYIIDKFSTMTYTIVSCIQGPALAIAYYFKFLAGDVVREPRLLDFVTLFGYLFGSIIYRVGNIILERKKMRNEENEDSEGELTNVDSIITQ
Method in brief: (§1)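 Oocytes expressing PfCRT isoforms, or non-expressing controls, were incubated 1.5 h at 27.5 °C in ND96 buffer pH 5.5 (96 mM NaCl, 2 mM KCl, 1 mM MgCl2, 1.8 mM CaCl2, 10 mM MES, 10 mM Tris-base), measuring uptake from acidic medium into cytosol. Oocytes were washed ice-cold, SDS-lysed and counted by scintillation.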

[3] = molecular target: PfCRT^Dd2 (Plasmodium falciparum, UniProt Q9N623, A220S/I356T/K76T/M74I/N326S/N75E/Q271E/R371I); assay: as above; type: cell-based
PfCRT^Dd2, sequence (Q9N623 whole entry A220S/I356T/K76T/M74I/N326S/N75E/Q271E/R371I): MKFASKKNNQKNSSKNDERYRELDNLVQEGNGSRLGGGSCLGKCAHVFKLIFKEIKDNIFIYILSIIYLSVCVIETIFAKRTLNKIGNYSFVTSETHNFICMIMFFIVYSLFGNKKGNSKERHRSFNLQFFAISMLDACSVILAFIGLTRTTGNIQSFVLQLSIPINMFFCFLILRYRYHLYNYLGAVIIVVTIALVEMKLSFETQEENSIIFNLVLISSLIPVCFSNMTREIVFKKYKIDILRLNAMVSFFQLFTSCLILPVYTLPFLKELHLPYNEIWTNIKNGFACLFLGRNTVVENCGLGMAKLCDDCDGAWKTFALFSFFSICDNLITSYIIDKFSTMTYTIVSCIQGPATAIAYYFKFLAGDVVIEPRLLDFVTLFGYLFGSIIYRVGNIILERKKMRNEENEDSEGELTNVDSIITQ
Method in brief: as §1

[4] = molecular target: PfCRT^3D7 (Plasmodium falciparum, UniProt Q8IBZ9); assay: cell-based; type: cell-based
PfCRT^3D7, sequence (Q8IBZ9 59-398): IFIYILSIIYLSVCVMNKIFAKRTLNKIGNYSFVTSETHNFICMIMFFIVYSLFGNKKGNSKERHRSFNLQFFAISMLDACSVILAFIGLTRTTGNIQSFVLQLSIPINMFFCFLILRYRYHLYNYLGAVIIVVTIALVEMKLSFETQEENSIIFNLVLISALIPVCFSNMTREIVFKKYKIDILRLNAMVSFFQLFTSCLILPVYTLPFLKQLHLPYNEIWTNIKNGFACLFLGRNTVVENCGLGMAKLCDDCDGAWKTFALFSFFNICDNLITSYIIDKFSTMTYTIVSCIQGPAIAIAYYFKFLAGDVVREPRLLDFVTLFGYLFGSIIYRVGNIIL
Method in brief: (§2)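 Transport measured in Xenopus oocytes expressing the transporters, 1.5 h at 27.5 °C in ND96 pH 5.5 unless noted. For trans-stimulation, VF-6 injected in 25 nL ND96 at pH 5.0–7.0 or Na^+-free (choline) buffer; intracellular levels based on ~400 nL oocyte volume. Ten oocytes per treatment, ≥4 experiments.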

[5] = molecular target: T1, PfCRT^Ecu1110; assay: cell-based; type: cell-based; conditions: […], pH 5.5, read-out: PfCRT-mediated [3H]CQ transport, trans-stimulation (% PfCRTEcu1110 control), [test solute]i = 5 mM (intracellular); PfCRTEcu1110 oocytes; normalised to oocyte type control
Method in brief: as §2

[6] = read-out: PfCRT-mediated [3H]CQ transport, cis-inhibition (% PfCRTEcu1110 control)
[7] = read-out: Uptake of [3H]CQ (% PfCRTDd2 control), cis-inhibition, PfCRTEcu1110, SEM
[8] = read-out: Uptake of [3H]CQ (% PfCRTEcu1110 control), cis-inhibition
[9] = read-out: [3H]CQ transport (% PfCRTEcu1110 control), cis-inhibition, PfCRTEcu1110, SEM
[10] = read-out: PfCRT-mediated [3H]CQ transport, cis-inhibition (% PfCRTDd2 control)
[11] = read-out: Uptake of [3H]CQ (% PfCRTDd2 control), cis-inhibition
[12] = read-out: Uptake of [3H]CQ (% PfCRTDd2 control), cis-inhibition, PfCRTDd2, SEM
[13] = read-out: [3H]CQ transport (% PfCRTDd2 control), cis-inhibition, PfCRTDd2, SEM

## N=C(N)NCCC[C@H](N)C(=O)O [L-arginine]
[1]
  Compounds that have been tested as potential co-substrates but are not required for influx of VF-6 via PfCRT into the oocyte: X
[2]; [6]
  inhibition at 500 µM: 98 ± 2.5%
  inhibition at 1000 µM: 95 ± 3.5%
  inhibition at 2000 µM: 99 ± 1.6%
[2]; [7]
  inhibition at 500 µM: 33 ± 2.4%
  inhibition at 1000 µM: 32 ± 1%
  inhibition at 2000 µM: 33 ± 1.4%
[2]; [8]
  inhibition at 500 µM: 100 ± 4.3%
  inhibition at 1000 µM: 97 ± 6.2%
  inhibition at 2000 µM: 101 ± 3.6%
[2]; [9]
  inhibition at 500 µM: 30 ± 0.6%
  inhibition at 1000 µM: 29 ± 0.4%
  inhibition at 2000 µM: 30 ± 0.5%
[3]; [10]
  inhibition at 500 µM: 99 ± 3.2%
  inhibition at 1000 µM: 99 ± 2.6%
  inhibition at 2000 µM: 95 ± 2.4%
[3]; [11]
  inhibition at 500 µM: 101 ± 4.8%
  inhibition at 1000 µM: 101 ± 5.8%
[3]; [12]
  inhibition at 500 µM: 101 ± 4.8%
  inhibition at 1000 µM: 101 ± 5.8%
  inhibition at 2000 µM: 98 ± 3.5%
[3]; [13]
  inhibition at 500 µM: 99 ± 3.2%
  inhibition at 1000 µM: 99 ± 2.6%
[4]; PfCRT3D7 oocytes, [test solute]i = 5 mM, total [3H]CQ transport, normalised to the oocyte type control, read-out: Uptake of [3H]CQ (% PfCRT3D7 control), trans-stimulation
  activity at 5000 µM: 97 ± 2.2%
[4]; SEM
  [3H]CQ transport (% PfCRT3D7 control), trans-stimulation, PfCRT3D7: 0.3 ± 0.02 % PfCRT3D7 control
[4]; [test solute]i = 5 mM (intracellular), PfCRT3D7 oocytes, normalised to oocyte type control, read-out: PfCRT-mediated [3H]CQ transport, trans-stimulation (% PfCRT3D7 control)
  activity at 5000 µM: 96 ± 3.7%
[4]; SEM, read-out: Uptake of [3H]CQ (% PfCRTDd2 control), trans-stimulation, PfCRT3D7
  activity at 45000 µM: 3.3 ± 0.02%
[4]; read-out: PfCRT-mediated [3H]CQ transport, trans-stimulation (% PfCRT3D7 control)
  activity at 45000 µM: 96 ± 3.1%
[4]; read-out: Uptake of [3H]CQ (% PfCRT3D7 control), trans-stimulation
  activity at 45000 µM: 98 ± 4.4%
[4]; total [3H]CQ transport, [test solute]i = 5 mM (intracellular), mean ± SEM, SEM, read-out: Uptake of [3H]CQ (% PfCRTDd2 control), trans-stimulation, PfCRT3D7
  activity at 5000 µM: 3.3 ± 0.06%
[5]
  activity at 5000 µM: 98 ± 4.1%
